Data published in patent US9169260B2 (MERCK SHARP & DOHME CORP., priority 2011, dated 2015).

Biological target: GST tagged IRAK-4 (Homo sapiens (Human), UniProt Q9NWZ3)
Assay: IRAK-4 Kinase Assay (IMAP fluorescence polarization)
Assay type: biochemical
Conditions: 100 μM ATP, 30 minutes at 25° C.
Outline: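 Activity was read by IMAP fluorescence polarization, where phosphopeptide binding to M(III) nanoparticles raises FP. The 30-minute, 25° C reaction used 100 μM ATP, 100 nM RP7030 substrate and 0.5 nM GST-IRAK-4 in pH 7.2 Tris buffer with MgCl2, DTT and Tween 20.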

GST tagged IRAK-4, sequence (Q9NWZ3 whole entry): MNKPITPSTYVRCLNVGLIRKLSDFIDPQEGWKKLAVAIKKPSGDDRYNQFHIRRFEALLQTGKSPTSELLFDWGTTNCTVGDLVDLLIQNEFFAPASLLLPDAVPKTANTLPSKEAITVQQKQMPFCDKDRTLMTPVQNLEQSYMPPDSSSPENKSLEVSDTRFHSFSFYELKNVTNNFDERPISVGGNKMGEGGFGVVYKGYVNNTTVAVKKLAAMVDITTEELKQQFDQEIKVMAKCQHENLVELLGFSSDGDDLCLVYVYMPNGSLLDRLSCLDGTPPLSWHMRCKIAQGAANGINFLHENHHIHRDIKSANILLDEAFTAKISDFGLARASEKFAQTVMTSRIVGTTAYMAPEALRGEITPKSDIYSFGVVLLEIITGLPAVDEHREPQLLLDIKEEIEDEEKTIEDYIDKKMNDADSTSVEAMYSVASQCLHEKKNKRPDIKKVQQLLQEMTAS

IC50 (μM) [µM]	IC50 [µM]	SMILES
< 1		COc1ccc(-c2cc(NC(=O)c3cnn4cccnc34)n(-c3ccc(C)cc3)n2)cc1 [Example 131, N-(3-(4-methoxyphenyl)-1-(p-tolyl)-1H-pyrazol-5-yl)pyrazolo[1,5-a]pyrimidine-3-carboxamide]
< 1		Cc1ccc(-n2nc(C3CCN(S(=O)(=O)c4ccc(C#N)cc4)CC3)cc2NC(=O)c2cnn3cccnc23)cc1 [Example 380, N-[3-{1-[(4-cyanophenyl)sulfonyl]piperidin-4-yl}-1-(4-methylphenyl)-1H-pyrazol-5-yl]pyrazolo[1,5-a]pyrimidine-3-carboxamide]
> 1		Cc1ccc(-n2nc(C3CCC(C(F)(F)F)CC3)cc2NC(=O)c2cnn3cccnc23)cc1 (stereo not drawn) [Example 97, N-(1-(p-tolyl)-3-(4-(trifluoromethyl)cyclohexyl)-1H-pyrazol-5-yl)pyrazolo[1,5-a]pyrimidine-3-carboxamide]
< 1		CCN(CC)S(=O)(=O)c1ccc(-c2cc(NC(=O)c3cnn4cccnc34)n(-c3ccc(C)cc3)n2)c(C)c1 [Example 340, N-{3-[4-(diethylsulfamoyl)-2-methylphenyl]-1-(4-methylphenyl)-1H-pyrazol-5-yl}pyrazolo[1,5-a]pyrimidine-3-carboxamide]
	< 0.1	Cc1ccc(-n2nc(-c3ccc(S(=O)(=O)N4CCOCC4)cc3)cc2NC(=O)c2cnn3cccnc23)nc1 [Example 177, N-(1-(5-methylpyridin-2-yl)-3-(4-(morpholinosulfonyl)phenyl)-1H-pyrazol-5-yl)pyrazolo[1,5-a]pyrimidine-3-carboxamide]
	< 0.1	CCC(C)N1CCC(c2cc(NC(=O)c3cnn4cccnc34)n(-c3ccc(C)cc3)n2)CC1 (stereo not drawn) [Example 209]
> 1		CS(=O)(=O)N1CCC(c2cc(NC(=O)c3cnn4cccnc34)n(-c3nccn3S(C)(=O)=O)n2)CC1 [Example 188, N-(1-(1-(methylsulfonyl)-1H-imidazol-2-yl)-3-(1-(methylsulfonyl)piperidin-4-yl)-1H-pyrazol-5-yl)pyrazolo[1,5-a]pyrimidine-3-carboxamide]
	< 0.1	COc1cccc(CN2CC(c3cc(NC(=O)c4cnn5cccnc45)n(-c4ccc(C)cc4)n3)C2)n1 [Example 315, N-[3-{1-[(6-methoxypyridin-2-yl)methyl]azetidin-3-yl}-1-(4-methylphenyl)-1H-pyrazol-5-yl]pyrazolo pyrimidine-3-carboxamide]
< 1		Cc1ccc(-n2nc(-c3cncc(CO)c3)cc2NC(=O)c2cnn3cccnc23)cc1 [Example 332, N-{3-[5-(hydroxymethyl)pyridin-3-yl]-1-(4-methylphenyl)-1H-pyrazol-5-yl}pyrazolo[1,5-a]pyrimidine-3-carboxamide]
< 1		CC(C)N1CCC(c2cc(NC(=O)c3cnn4cccnc34)n(-c3ncc[nH]3)n2)CC1 [Example 187, N-(1-(1H-imidazol-2-yl)-3-(1-isopropylpiperidin-4-yl)-1H-pyrazol-5-yl)pyrazolo[1,5-a]pyrimidine-3-carboxamide]
< 1		O=C(Nc1cc(-c2ccncc2)nn1-c1ccc(F)cc1)c1cnn2cccnc12 [Example 126, N-(1-(4-fluorophenyl)-3-(pyridin-4-yl)-1H-pyrazol-5-yl)pyrazolo[1,5-a]pyrimidine-3-carboxamide]
< 1		Cc1ccc(-n2nc(C3CCN(S(=O)(=O)c4ccc(Cl)nc4)CC3)cc2NC(=O)c2cnn3cccnc23)cc1 [Example 382]
> 1		Cc1ccc(-n2nc(C3CCC(C(=O)O)CC3)cc2NC(=O)c2cnn3cccnc23)cc1 (stereo not drawn) [Example 94, 4-(5-(pyrazolo[1,5-a]pyrimidine-3-carboxamido)-1-(p-tolyl)-1H-pyrazol-3-yl)cyclohexanecarboxylic acid]
	< 0.1	Cc1ccc(-n2nc(C3CCN(C4CCCC4)CC3)cc2NC(=O)c2cnn3cccnc23)cc1 [Example 325, N-(3-(1-cyclopentylpiperidin-4-yl)-1-(p-tolyl)-1H-pyrazol-5-yl)pyrazolo[1,5-a]pyrimidine-3-carboxamide]
< 1		Cc1ccc(-n2nc(C3CCN(S(=O)(=O)c4ccccc4C#N)CC3)cc2NC(=O)c2cnn3cccnc23)cc1 [Example 362, N-[3-{1-[(2-cyanophenyl)sulfonyl]piperidin-4-yl}-1-(4-methylphenyl)-1H-pyrazol-5-yl]pyrazolo[1,5-a]pyrimidine-3-carboxamide]
< 1		COc1ccc(-c2cc(NC(=O)c3cnn4cccnc34)n(-c3cccc(F)c3)n2)cc1 [Example 132, N-(1-(3-fluorophenyl)-3-(4-methoxyphenyl)-1H-pyrazol-5-yl)pyrazolo[1,5-a]pyrimidine-3-carboxamide]

IC50 (μM) [µM]	IC50 [µM]	SMILES
< 1		Cc1ccc(-n2nc(C3CCN(S(C)(=O)=O)CC3)cc2NC(=O)c2cnn3cc(C#N)cnc23)cc1 [Example 121, 6-cyano-N-(3-(1-(methylsulfonyl)piperidin-4-yl)-1-(p-tolyl)-1H-pyrazol-5-yl)pyrazolo[1,5-a]pyrimidine-3-carboxamide]
	< 0.1	CNS(=O)(=O)c1ccc(-c2cc(NC(=O)c3cnn4cccnc34)n(-c3ccc(C)cc3F)n2)cc1 [Example 100, N-(1-(2-fluoro-4-methylphenyl)-3-(4-(N-methylsulfamoyl)phenyl)-1H-pyrazol-5-yl)pyrazolo[1,5-a]pyrimidine-3-carboxamide]
< 1		Cc1ccc(-n2nc(C3CCN(S(=O)(=O)c4cccc5ccccc45)CC3)cc2NC(=O)c2cnn3cccnc23)cc1 [Example 357, N-{1-(4-methylphenyl)-3-[1-(naphthalen-1-ylsulfonyl)piperidin-4-yl]-1H-pyrazol-5-yl}pyrazolo[1,5-a]pyrimidine-3-carboxamide]
	< 0.1	CCCN1CCC(c2cc(NC(=O)c3cnn4cccnc34)n(-c3ccc(C)cn3)n2)CC1 [Example 280, N-[1-(5-methylpyridin-2-yl)-3-(1-propylpiperidin-4-yl)-1H-pyrazol-5-yl]pyrazolo[1,5-a]pyrimidine-3-carboxamide]
	< 0.1	Cc1ccc(-n2nc(N3CCN(C)CC3)cc2NC(=O)c2cnn3cccnc23)nc1 [Example 197, N-(3-(4-methylpiperazin-1-yl)-1-(5-methylpyridin-2-yl)-1H-pyrazol-5-yl)pyrazolo[1,5-a]pyrimidine-3-carboxamide]
< 1		Cc1ccc(-n2nc(C3CN(Cc4cnccn4)C3)cc2NC(=O)c2cnn3cccnc23)cc1 [Example 304, N-{1-(4-methylphenyl)-3-[1-(pyrazin-2-ylmethyl)azetidin-3-yl]-1H-pyrazol-5-yl}pyrazolo[1,5-a]pyrimidine-3-carboxamide]
< 1		Cc1ccc(-n2nc(C3CCN(C(C)c4ncccc4F)CC3)cc2NC(=O)c2cnn3cccnc23)cc1 (stereo not drawn) [Example 212, N-(3-(1-(1-(3-fluoropyridin-2-yl)ethyl)piperidin-4-yl)-1-(p-tolyl)-1H-pyrazol-5-yl)pyrazolo[1,5-a]pyrimidine-3-carboxamide]
	< 0.1	Cc1ccc(-n2nc(C3CCN(S(=O)(=O)c4sc(C)nc4C)CC3)cc2NC(=O)c2cnn3cccnc23)cc1 [Example 364, N-[3-{1-[(2,4-dimethyl-1,3-thiazol-5-yl)sulfonyl]piperidin-4-yl}-1-(4-methylphenyl)-1H-pyrazol-5-yl]pyrazolo[1,5-a]pyrimidine-3-carboxamide]
	< 0.1	Cc1ccc(-n2nc(C3CCN(C(=O)C4(O)CCC4)CC3)cc2NC(=O)c2cnn3cc(Br)cnc23)cc1 [Example 116, 6-bromo-N-(3-(1-(1-hydroxycyclobutanecarbonyl)piperidin-4-yl)-1-(p-tolyl)-1H-pyrazol-5-yl)pyrazolo[1,5-a]pyrimidine-3-carboxamide]
< 1		Cc1ccc(-n2nc(C3CCN(S(=O)(=O)C4CCCC4)CC3)cc2NC(=O)c2cnn3cccnc23)cc1 [Example 25, N-(3-(1-(cyclopentylsulfonyl)piperidin-4-yl)-1-(p-tolyl)-1H-pyrazol-5-yl)pyrazolo[1,5-a]pyrimidine-3-carboxamide]
< 1		Cc1ccc(-n2nc(C3CCN(S(=O)(=O)c4cccc5cccnc45)CC3)cc2NC(=O)c2cnn3cccnc23)cc1 [Example 396, N-{1-(4-methylphenyl)-3-[1-(quinolin-8-ylsulfonyl)piperidin-4-yl]-1H-pyrazol-5-yl}pyrazolo[1,5-a]pyrimidine-3-carboxamide]
	< 0.1	COc1ccc(-c2cc(NC(=O)c3cnn4cccnc34)n(-c3ccc(C)cc3)n2)cc1OC [Example 133, N-(3-(3,4-dimethoxyphenyl)-1-(p-tolyl)-1H-pyrazol-5-yl)pyrazolo[1,5-a]pyrimidine-3-carboxamide]
< 1		Cc1ccc(-n2nc(C3CCNCC3)cc2NC(=O)c2cnn3cc(Br)cnc23)cc1 [Example 107, 6-bromo-N-(3-(piperidin-4-yl)-1-(p-tolyl)-1H-pyrazol-5-yl)pyrazolo[1,5-a]pyrimidine-3-carboxamide]
	< 0.1	CS(=O)(=O)N1CCC(c2cc(NC(=O)c3cnn4cccnc34)n(-c3ccc(C=O)cn3)n2)CC1 [Example 165, N-(1-(5-formylpyridine-2-yl)-3-(1-(methylsulfonyl)piperidin-4-yl)-1H-pyrazol-5-yl)pyrazolo[1,5-a]pyrimidine-3-carboxamide]
< 1		Cc1ccc(-n2nc(-c3cccc(NS(C)(=O)=O)c3)cc2NC(=O)c2cnn3cccnc23)cc1 [Example 346, N-[1-(4-methylphenyl)-3-{3-[(methylsulfonyl)amino]phenyl}-1H-pyrazol-5-yl]pyrazolo[1,5-a]pyrimidine-3-carboxamide]
	< 0.1	Cc1ccc(-n2nc(-c3ccc(CN4CCCC4)cc3)cc2NC(=O)c2cnn3cccnc23)cc1 [Example 143, N-(3-(4-(pyrrolidin-1-ylmethyl)phenyl)-1-(p-tolyl)-1H-pyrazol-5-yl)pyrazolo[1,5-a]pyrimidine-3-carboxamide]

SMILES	IC50 (μM) [µM]	IC50 [µM]
Cc1ccc(-n2nc(C3=CCNCC3)cc2NC(=O)c2cnn3cccnc23)cc1 [Example 138, N-(3-(1,2,3,6-tetrahydropyridin-4-yl)-1-(p-tolyl)-1H-pyrazol-5-yl)pyrazolo[1,5-a]pyrimidine-3-carboxamide]		< 0.1
